Test results published in patent US12590127B2, “Split photoactive yellow protein complementation system and uses thereof” (PARIS SCIENCES ET LETTRES, priority 2019, dated 2026).

B1: iFAST: FAST variant with isoleucine at position 107 (SEQ ID NO: 16); its Nter fragment is SEQ ID NO: 30 (protein)
chain: MEHVAFGSEDIENTLAKMDDGQLDGLAFGAIQLDGDGNILQYNAAEGDITGRDPKQVIGKNFFKDVAPGTDSPEFYGKFKEGVASGNLNTMFEWMIPTSRGPTKVKIHMKKALSGDSYWVFVKRV
modifications: functional PYP

Experiments:
NFAST = target: T1, NFAST (Halorhodospira halophila, UniProt P16113, C69G/D97P/F96I/M100R/Q99S/T101G/T95M/Y94W/Y98T); test: Thermodynamic dissociation constants of NFAST:CFASTn couples in the presence of fluorogen (plate reader, one-site specific binding fit); settings: synthetic CFASTn peptide and purified NFAST
T1 construct: His tag (N); made in house; host or cells: Rosetta (DE3) pLysS E. coli
T1 sequence (P16113 1-114 C69G/Y94W/T95M/F96I/D97P/Y98T/Q99S/M100R/T101G): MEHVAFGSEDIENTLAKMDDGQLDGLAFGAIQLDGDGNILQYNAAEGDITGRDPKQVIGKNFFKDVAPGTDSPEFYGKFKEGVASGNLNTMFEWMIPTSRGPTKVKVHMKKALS
Protocol: In one embodiment, the thermodynamic dissociation constant KD is determined by spectrofluorometric titration as described in the Examples.
Expression vectors were transformed in Rosetta (DE3) pLysS E. coli (NEW ENGLAND BIOLABS®). Cells were grown at 37° C. in LB medium complemented with 50 μg/mL kanamycin and 34 μg/mL chloramphenicol to OD600 nm 0.6. Expression was induced for 4 hours by adding isopropyl β-D-1-thiogalactopyranoside (IPTG) to a final concentration of 1 mM. Cells were harvested by centrifugation (4,000×g for 20 min at 4° C.) and frozen. The cell pellet was resuspended in lysis buffer (phosphate buffer 50 mM, NaCl 150 mM, MgCl2 2.5 mM, protease inhibitor, DNase, pH 7.4) and sonicated (5 min at 20% of amplitude, 3 sec on, 1 sec off). The lysate was incubated for 2 hours at 4° C. to allow DNA digestion by DNase. Cellular fragments were removed by centrifugation (9200×g for 1 hour at 4° C.). The supernatant was incubated overnight at 4° C. under gentle agitation with Ni-NTA agarose beads in phosphate buffered saline (PBS) (sodium phosphate 50 mM, NaCl 150 mM, pH 7.4) complemented with 10 mM imidazole. Beads were washed with 20 volumes of PBS containing 20 mM imidazole, and with 5 volumes of PBS complemented with 40 mM imidazole. His-tagged proteins were eluted with 5 volumes of PBS complemented with 0.5 M imidazole. The buffer was exchanged to PBS (50 mM phosphate, 150 mM NaCl, pH 7.4) using PD-10 desalting columns.
Thermodynamic dissociation constants for NFAST:CFASTn (n=8 to 11) couples were determined using peptides synthesized for CFASTn (n=8 to 11) and recombinantly purified NFAST. The affinity for NFAST:CFAST11 in the presence of 10 μM HMBR was determined independently from a minimum of three different purifications of NFAST. NFAST:CFAST11 was then run in parallel as an internal control for the determination of the other NFAST-CFAST combinations, which were all performed on the same day with the same preparation of NFAST. Thermodynamic dissociation constants were determined with a Spark 10M plate reader (TECAN®) and fit in Prism 6 to a one-site specific binding model.

HEK 293T cells = test: Relative in-cell brightness of split-FAST after rapamycin-induced FRB-FKBP complementation; format: cell-based, human; settings: FIG. 4; for relative in-cell brightness (fluorescence observed) by C-terminal fragment: FRB-NFAST + FKBP-CFASTn, any of HMBR, HBR-3,5DM, HBR-30M, HBR-3,5DOM
Source text: FIGS. 4A-4D are a set of histograms showing the relative in-cell brightness of various split-FAST with different fluorogenic HBR analogs as indicated (4A: HMBR, 4B: HBR-3,5DM, 4C: HBR-30M, and 4D: HBR-3,5DOM) in function of the C-terminal fragment CFASTn (n=11, 10 or 9) and the N-terminal fragment used. The iFAST label indicates when NFAST from iFAST (i.e., the first PYP fragment according to the invention consisting of the amino acid sequence NFAST with an isoleucine at position 107 instead of a valine as set forth in SEQ ID NO: 30) was used. If absent, NFAST from FAST was used (i.e., the first PYP fragment according to the invention consisting of the amino acid sequence as set forth in SEQ ID NO: 23). CFAST11, CFAST10 and CFAST9 correspond to the second PYP fragment according to the invention consisting of the amino acid sequence as set forth in SEQ ID NO: 34, SEQ ID NO: 42 and SEQ ID NO: 43, respectively. NFAST fragments were fused to FRB and CFAST fragments were fused to FKBP. Complementation was induced by addition of rapamycin. Split-FAST fluorescence was normalized by expression level using the fluorescence of co-expressed fluorescent proteins.
HEK 293T cells were seeded in ibidi μDish microscopy dishes and 24 hours prior to imaging were co-transfected with plasmids encoding CMV-FRB-NFAST (or NFAST(V107I))-P2A-mCherry (or EGFP)) and CMV-FKBP-CFASTn (n=11, 10 or 9). The cells were imaged before and after addition of 500 nM rapamycin.

HEK293 cells = test: Photobleaching / photostability of split-FAST:HMBR in cells by confocal microscopy; format: cell-based, human; settings: 10 μM HMBR, 488 nm excitation, rapamycin-treated cells, FAST as control, FIG. 5E
Protocol: FIGS. 5A-5G illustrate the detection of rapamycin-induced FRB-FKBP dimerization with the complementation system of the invention. 5A and 5B show HEK293T cells co-expressing FKBP-NFAST and FRB-CFASTn (n=10 or 11) which were labeled with 5 μM HMBR (5A) or 10 μM HBR-3,5DOM (5B) and imaged before and after addition of 100 nM rapamycin. Scale bars 10 μm. […] Cells expressing FRB-NFAST and FKBP-CFASTn (n=10 or 11) were treated with rapamycin to form split-FAST11 and split-FAST10. Cells expressing FAST were used as control. HMBR concentration was 10 μM. Excitation at 488 nm at 6.3 kW/cm2. Six cells were analyzed per condition. […] Scale bars 20 μm. […] Scale bars 20 μm.
Photobleaching measurements for HMBR were carried out at 10 μM fluorogen at 488 nm excitation (4.6 kW/cm2, […] pixel dwell); FAST was used as a control. Samples were imaged continuously for 1000 images at a 1 frame per second frequency.

[1] = KD of NFAST-CFASTn 10 μM HMBR, in the presence of 10 μM HMBR
[2] = KD of NFAST-CFASTn 10 μM HBR-3,5-DOM, in the presence of 10 μM HBR-3,5-DOM

Molecule	Kd (NFAST; [1])	Kd (NFAST; [2])	relative in-cell brightness (fluorescence observed) by C-terminal fragment (HEK 293T cells)	photostability of split-FAST:fluorogen assembly in cells (HEK293 cells)	fluorescence of the Nter fragment of iFAST + CFAST compared with NFAST + CFAST (HEK 293T cells; HEK 293T cells)
Ac-GDSYWVFV-NH2 [CFAST8]	21 ± 4 µM	–	–	–	–
Ac-GDSYWVFVK-NH2 [CFAST9]	5.7 ± 0.06 µM	25 ± 1 µM	lowest	–	–
Ac-GDSYWVFVKR-NH2 [CFAST10]	0.95 ± 0.08 µM	6.2 ± 0.5 µM	lower	as photostable as the regular FAST:fluorogen complex	–
Ac-GDSYWVFVKRV-NH2 [CFAST11]	0.21 ± 0.05 µM	1.4 ± 0.2 µM	highest	as photostable as the regular FAST:fluorogen complex	–
B1	–	–	–	–	similar
